Activity calls are given as the source filed them.
How the values were obtained:
[1] = biological target: T1, Heat shock factor protein 1 (Mus musculus, UniProt P38532); assay: decrease of HSF1-responsive luciferase luminescence – cell-based, NIH3T3, dose retest, confirmation (AID 2382); type: functional;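 note: NIH3T3 fibroblasts with HSF1-driven luciferase reporter stressed by proteasome inhibitor MG132; luminescence from HSF1-driven luciferase expression after 8 hours of MG132 stress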
T1 sequence (P38532 whole entry): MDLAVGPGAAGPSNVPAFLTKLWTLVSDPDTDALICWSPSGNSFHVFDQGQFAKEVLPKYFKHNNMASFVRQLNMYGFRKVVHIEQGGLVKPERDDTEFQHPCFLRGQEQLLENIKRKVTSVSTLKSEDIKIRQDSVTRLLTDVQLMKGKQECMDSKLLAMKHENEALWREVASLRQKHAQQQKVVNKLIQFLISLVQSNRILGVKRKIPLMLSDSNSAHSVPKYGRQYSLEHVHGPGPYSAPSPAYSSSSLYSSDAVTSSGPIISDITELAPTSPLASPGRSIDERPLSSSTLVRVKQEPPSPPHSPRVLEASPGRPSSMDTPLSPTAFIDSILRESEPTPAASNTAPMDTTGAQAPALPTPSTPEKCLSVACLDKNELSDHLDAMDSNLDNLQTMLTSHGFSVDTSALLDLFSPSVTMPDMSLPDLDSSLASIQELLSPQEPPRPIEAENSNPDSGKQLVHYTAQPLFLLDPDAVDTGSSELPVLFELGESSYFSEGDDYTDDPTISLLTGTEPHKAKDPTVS

[2] = biological target: Cytochrome P450 3A4 (Homo sapiens, UniProt P08684);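 note: CYP3A4 tested as one member of a cytochrome P450 panel screen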
[3] = biological target: T2, Cytochrome P450 1A2 (Homo sapiens, UniProt P05177);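 note: PubChem cytochrome P450 panel assay, CYP1A2 panel member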
T2 sequence (P05177 whole entry): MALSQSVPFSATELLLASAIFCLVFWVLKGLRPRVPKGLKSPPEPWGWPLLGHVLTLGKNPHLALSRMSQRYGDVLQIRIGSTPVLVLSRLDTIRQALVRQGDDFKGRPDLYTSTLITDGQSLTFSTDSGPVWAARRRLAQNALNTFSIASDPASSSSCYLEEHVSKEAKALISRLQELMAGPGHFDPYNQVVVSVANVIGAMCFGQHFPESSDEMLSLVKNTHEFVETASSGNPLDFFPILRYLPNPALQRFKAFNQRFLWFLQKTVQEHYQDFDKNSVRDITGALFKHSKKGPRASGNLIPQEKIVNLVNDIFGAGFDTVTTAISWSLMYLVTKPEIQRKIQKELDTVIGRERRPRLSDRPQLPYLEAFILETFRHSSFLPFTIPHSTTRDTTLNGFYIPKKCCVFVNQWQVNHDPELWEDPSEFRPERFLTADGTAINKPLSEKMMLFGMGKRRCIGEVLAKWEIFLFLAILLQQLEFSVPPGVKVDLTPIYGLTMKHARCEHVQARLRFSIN

[4] = biological target: T3, Protein RecA (Mycobacterium tuberculosis, UniProt P9WHJ3); assay: Fluorescence Cell-Free Homogeneous Dose Retest to Identify Inhibitors of RecA-Intein Splicing Activity. [Related pubchem assays (depositor defined):AID2097, AID2223, AID489010, AID492950]; type: functional
T3 sequence (P9WHJ3 whole entry): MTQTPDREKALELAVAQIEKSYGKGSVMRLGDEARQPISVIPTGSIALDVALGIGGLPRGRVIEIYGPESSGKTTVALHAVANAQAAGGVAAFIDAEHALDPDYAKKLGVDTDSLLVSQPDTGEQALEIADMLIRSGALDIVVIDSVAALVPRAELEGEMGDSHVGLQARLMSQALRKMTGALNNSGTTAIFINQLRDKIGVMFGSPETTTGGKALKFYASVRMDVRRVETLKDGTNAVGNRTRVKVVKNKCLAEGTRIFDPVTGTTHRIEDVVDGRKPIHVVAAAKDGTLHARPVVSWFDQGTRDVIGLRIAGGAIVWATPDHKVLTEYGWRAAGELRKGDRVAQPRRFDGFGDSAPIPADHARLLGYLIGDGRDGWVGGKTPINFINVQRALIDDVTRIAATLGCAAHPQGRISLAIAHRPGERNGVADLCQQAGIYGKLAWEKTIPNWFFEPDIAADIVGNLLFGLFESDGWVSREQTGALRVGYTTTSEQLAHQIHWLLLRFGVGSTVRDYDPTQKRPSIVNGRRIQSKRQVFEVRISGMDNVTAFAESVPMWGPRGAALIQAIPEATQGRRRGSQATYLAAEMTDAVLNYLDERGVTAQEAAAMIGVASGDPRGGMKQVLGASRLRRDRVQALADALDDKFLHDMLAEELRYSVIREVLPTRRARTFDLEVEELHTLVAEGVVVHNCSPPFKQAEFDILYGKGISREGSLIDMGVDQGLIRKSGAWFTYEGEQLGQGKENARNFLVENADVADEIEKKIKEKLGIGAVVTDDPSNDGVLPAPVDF

[5] = biological target: T4, Replicative DNA helicase DnaB (Mycobacterium tuberculosis, UniProt P9WMR3); assay: DnaB intein splicing inhibitors, dose response, biochemical, cell-free fluorescence (AID 449749); type: functional
T4 sequence (P9WMR3 whole entry): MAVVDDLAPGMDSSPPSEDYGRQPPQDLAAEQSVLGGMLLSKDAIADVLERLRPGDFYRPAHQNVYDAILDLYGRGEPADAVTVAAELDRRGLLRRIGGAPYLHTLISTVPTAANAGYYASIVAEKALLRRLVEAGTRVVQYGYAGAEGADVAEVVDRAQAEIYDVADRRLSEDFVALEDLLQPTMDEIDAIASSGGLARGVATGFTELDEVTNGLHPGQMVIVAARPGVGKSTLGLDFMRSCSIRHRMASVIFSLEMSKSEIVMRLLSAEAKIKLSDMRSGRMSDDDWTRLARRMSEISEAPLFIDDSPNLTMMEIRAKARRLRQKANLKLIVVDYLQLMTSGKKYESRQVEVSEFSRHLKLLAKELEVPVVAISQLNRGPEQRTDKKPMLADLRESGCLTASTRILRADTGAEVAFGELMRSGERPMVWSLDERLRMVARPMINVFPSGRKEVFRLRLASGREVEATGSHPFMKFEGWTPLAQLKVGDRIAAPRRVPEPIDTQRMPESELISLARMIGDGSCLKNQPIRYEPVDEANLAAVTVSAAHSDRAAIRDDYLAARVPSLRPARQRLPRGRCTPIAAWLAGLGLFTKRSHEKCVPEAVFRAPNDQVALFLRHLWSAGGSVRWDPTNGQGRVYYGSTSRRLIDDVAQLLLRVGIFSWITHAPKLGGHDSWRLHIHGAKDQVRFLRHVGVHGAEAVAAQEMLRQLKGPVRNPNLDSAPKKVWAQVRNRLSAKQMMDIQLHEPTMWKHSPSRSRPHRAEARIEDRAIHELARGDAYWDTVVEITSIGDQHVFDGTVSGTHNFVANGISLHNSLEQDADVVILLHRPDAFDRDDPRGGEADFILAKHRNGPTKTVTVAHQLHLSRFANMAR

[6] = biological target: T5, Corticotropin-releasing factor receptor 2/Corticotropin-releasing factor-binding protein (Homo sapiens, UniProt P24387+Q13324); assay: activators of CRF receptor 2 with binding protein – uHTS hits, confirmation (AID 602473); type: functional; conditions: read-out: EC50_Mean
T5 sequence (Q13324 whole entry): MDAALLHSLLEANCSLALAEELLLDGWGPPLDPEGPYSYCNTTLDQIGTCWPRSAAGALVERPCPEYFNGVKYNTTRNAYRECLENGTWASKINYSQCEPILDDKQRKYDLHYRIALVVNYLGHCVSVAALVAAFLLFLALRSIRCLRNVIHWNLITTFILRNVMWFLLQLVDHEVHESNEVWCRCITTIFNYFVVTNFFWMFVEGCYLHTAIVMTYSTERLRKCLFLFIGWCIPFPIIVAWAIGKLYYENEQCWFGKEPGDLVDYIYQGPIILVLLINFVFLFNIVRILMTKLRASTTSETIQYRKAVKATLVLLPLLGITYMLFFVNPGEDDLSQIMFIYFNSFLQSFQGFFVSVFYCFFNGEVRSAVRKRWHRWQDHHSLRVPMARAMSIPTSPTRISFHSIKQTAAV
T5 sequence (P24387 whole entry): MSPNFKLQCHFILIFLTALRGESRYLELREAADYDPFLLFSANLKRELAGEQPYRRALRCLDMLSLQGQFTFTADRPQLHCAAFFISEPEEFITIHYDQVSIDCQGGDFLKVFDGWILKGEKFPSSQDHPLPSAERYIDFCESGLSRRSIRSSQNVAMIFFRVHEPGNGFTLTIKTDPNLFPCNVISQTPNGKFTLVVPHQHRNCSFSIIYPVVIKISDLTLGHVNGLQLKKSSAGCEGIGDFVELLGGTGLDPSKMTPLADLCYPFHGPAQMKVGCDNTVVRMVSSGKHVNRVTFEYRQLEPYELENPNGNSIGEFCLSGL

[7] = biological target: Cytochrome P450 2C19 (Homo sapiens, UniProt P33261); assay: Cytochrome panel assay with activity outcomes. Panel member name: p450-cyp2c19 Compounds with AC50 equal or less than 10 uM are considered active; type: functional; conditions: read-out: AC50
[8] = test system: Streptococcus sp. 'group A'; assay: Streptococcus pyogenes SK(-)GAS viability under kanamycin – luminescence, BacTiterGlo, confirmation, counter-screen for streptokinase expression inhibitor project, dose response (AID 1900); type: functional, organism-based
[9] = test system: Streptococcus; assay: GAS UMAA2166 growth inhibition – luminescence, BacTiterGlo, counter-screen for streptokinase expression inhibitor project, dose response (AID 1915); type: functional, organism-based;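 note: potency for reduction of bacterial viability or growth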

Chain of Cytochrome P450 2C19 (P33261 whole entry): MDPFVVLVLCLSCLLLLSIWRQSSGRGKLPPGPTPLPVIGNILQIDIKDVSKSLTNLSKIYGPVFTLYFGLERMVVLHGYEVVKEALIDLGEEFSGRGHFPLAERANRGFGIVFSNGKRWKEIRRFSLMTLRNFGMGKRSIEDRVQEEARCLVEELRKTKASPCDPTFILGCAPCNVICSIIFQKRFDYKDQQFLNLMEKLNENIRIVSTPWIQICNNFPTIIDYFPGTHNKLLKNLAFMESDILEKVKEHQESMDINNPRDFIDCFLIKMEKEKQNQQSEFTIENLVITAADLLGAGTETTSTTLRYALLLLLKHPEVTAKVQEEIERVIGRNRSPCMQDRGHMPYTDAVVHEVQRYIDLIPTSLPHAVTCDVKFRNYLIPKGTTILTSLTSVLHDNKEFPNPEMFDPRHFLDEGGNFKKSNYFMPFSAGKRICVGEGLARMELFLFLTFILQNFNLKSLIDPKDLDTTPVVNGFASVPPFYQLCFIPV
Chain of Cytochrome P450 3A4 (P08684 whole entry): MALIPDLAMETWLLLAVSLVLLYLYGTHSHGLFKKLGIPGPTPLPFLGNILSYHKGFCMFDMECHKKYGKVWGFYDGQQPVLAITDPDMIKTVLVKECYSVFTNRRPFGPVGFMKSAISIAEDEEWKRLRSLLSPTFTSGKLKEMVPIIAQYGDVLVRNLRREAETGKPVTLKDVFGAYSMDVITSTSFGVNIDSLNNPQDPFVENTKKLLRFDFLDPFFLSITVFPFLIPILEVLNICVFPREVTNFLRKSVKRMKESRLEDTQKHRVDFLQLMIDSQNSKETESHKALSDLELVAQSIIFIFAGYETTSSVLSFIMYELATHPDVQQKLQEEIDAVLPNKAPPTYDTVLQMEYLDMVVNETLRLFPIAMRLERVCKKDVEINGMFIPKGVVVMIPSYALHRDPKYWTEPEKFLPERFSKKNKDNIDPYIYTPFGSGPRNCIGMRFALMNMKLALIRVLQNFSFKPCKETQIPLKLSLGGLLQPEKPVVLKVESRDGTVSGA

O=C(Nc1cccc(S(=O)(=O)N2CCOCC2)c1)c1ccccn1
EC50 [1]: > 195 µM (not active)

CCN(CC)S(=O)(=O)c1ccc(C)c(NC(=O)CNCc2ccccc2OC)c1
EC50 [1]: > 195 µM (not active)

CCCCn1c(N)c(N(CC(C)C)C(=O)c2cccc(S(=O)(=O)N3CCCCC3)c2)c(=O)[nH]c1=O
EC50 [1]: > 195 µM (not active)

CN1C(=O)c2ccccc2Sc2ccc(C(=O)N3CCC4(CC3)OCCO4)cc21
AC50 [2]: 20 µM (inconclusive)
EC50 [1]: > 195 µM (not active)

O=C(CN(C(=O)CSc1nc2ccccc2o1)c1cccc(F)c1)NC1CCCCC1
AC50 [3]: 20 µM (inconclusive)

CC1=NN(c2ccccc2)C(=O)/C1=C\c1cn(CCC#N)nc1-c1ccc(Cl)cc1
EC50 [4]: 2.77 µM (active)
AC50 [5]: 3.78 µM (active)

Cc1n[nH]c2c1C(c1ccc3c(c1)OCO3)C(C#N)=C(N)O2 (centres undefined)
EC50 [4]: 6.16 µM (active)
AC50 [5]: 15.6 µM (active)

C[C@]12c3[nH]c4ccccc4c3CCN1C(=O)C(CC(=O)NCC13C[C@H]4C[C@@H](C1)C[C@@H](C3)C4)C[C@@H]2C(=O)N1CCOCC1 (some centres undefined)
EC50 [6]: > 53 µM (inactive)

O=S(=O)(O)c1ccc2c(/N=N\c3c(O)ccc4ccccc34)cccc2c1
AC50 [3]: 3.16 µM (inconclusive)
AC50 [7]: 0.631 µM (inconclusive)

O=C1CC(CC(=O)N/N=C/c2ccccc2[N+](=O)[O-])=NN1
EC50 [4]: 1.85 µM (active)
AC50 [5]: 2.19 µM (active)

CC(C)N=C(S)NC1(C)CCS(=O)(=O)C1 (centres undefined)
EC50 [4]: > 380 µM (inactive)
AC50 [5]: > 380 µM (inactive)

COCCN(C(S)=Nc1c(C)cccc1C)C(C)c1cccnc1 (centres undefined)
EC50 [1]: > 195 µM (not active)

CNCC[C@@H](Oc1ccccc1C)c1ccccc1 [ATOMOXETINE]
AC50 [3]: 15.8 µM (inconclusive)
AC50 [2]: 12.6 µM (inconclusive)

COc1ccc(CC(NC(C)=O)C(=O)NC2CCN(C(=O)c3ccc(OC)c(OC)c3)CC2)cc1OC (centres undefined)
EC50 [1]: > 195 µM (not active)

FC(F)Oc1ccc(NC(S)=NNc2ccnc3cc(Cl)ccc23)cc1
EC50 [1]: > 195 µM (not active)

COc1ccccc1CN1CC(C(=O)NCCN2CCNC2=O)CCC1=O (centres undefined)
EC50 [1]: 9.48 µM (active)

Cc1ccc(S(=O)(=O)N2CCN(C(=O)c3ccccc3Cc3ccccc3)CC2)c(C)c1
EC50 [4]: 208 µM (active)
AC50 [5]: 2.54 µM (active)

CN(CC(=O)Nc1cccc(F)c1)CC(=O)Nc1cccc(S(N)(=O)=O)c1
EC50 [1]: > 195 µM (not active)

Cc1ccc(-c2csc(NC(=O)CSC3=NCCS3)n2)cc1
EC50 [4]: 3.83 µM (active)
AC50 [5]: 14.6 µM (active)

Cn1c(=O)n(C)c2cc(NS(C)(=O)=O)ccc21
EC50 [1]: > 195 µM (not active)

Cc1ccc(-n2nc(C)c3c2OC(N)=C(C#N)C3c2ccccc2F)cc1 (centres undefined)
EC50 [4]: 24 µM (inconclusive)
AC50 [5]: 5.37 µM (active)

CCN(C(=O)COC(=O)/C=C/c1ccccc1)C1CCCCC1
EC50 [1]: > 195 µM (not active)

O=C(C1CCCC1)N1CCCC(Nc2ccc(F)cc2)C1 (centres undefined)
EC50 [6]: > 53 µM (inactive)

COc1cccc(/C=C(\C#N)c2nc3ccccc3[nH]2)c1OCC(=O)O
EC50 [1]: > 195 µM (not active)

CC(C(=O)NC1CC(C)(C)NC(C)(C)C1)c1ccc([N+](=O)[O-])cc1 (centres undefined)
EC50 [1]: > 195 µM (not active)

Cc1nn(C)c(Cl)c1CN1CCC(n2nccc2NC(=O)C2CCCC2)CC1
EC50 [1]: > 195 µM (not active)

NC1=NN(c2cccc(C(=O)O)c2)C(=O)C1
EC50 [4]: 23.7 µM (inconclusive)
AC50 [5]: 20 µM (active)

COc1cccc(-c2csc(N3CCN(CC(=O)NNC(=O)c4ccc(Cl)cc4)CC3)n2)c1
AC50 [3]: 8.91 µM (inconclusive)

COC(=O)c1c(NC(=O)C(C)(C)C)sc2c1C(C(=O)OC)CC2 (centres undefined)
AC50 [3]: 0.794 µM (inconclusive)
AC50 [7]: 14.1 µM (inconclusive)

Nc1ccc(C#Cc2ccc3oc4ccccc4c(=O)c3c2)cc1
EC50 [8]: 2.5 µM (active)
EC50 [9]: 2.37 µM (active)

COCCn1c(=O)c(-c2ccc(Cl)cc2)nc2cnc(Nc3ccccc3)nc21
AC50 [3]: 20 µM (inconclusive)

From ChEMBL document CHEMBL1201862, “PubChem BioAssay data set” (2004)
